The nature of data set [1]: Human HepG2 cell viability assay in 384 well format. It is filed as toxicity, cell-based. More on the design: dose 125 nL, time 70.5 hour; concentration not given beside the values. As to conditions: HepG2 cells, read-out: Inhibition.
Data set [2] can be described thus: Human HepG2 cell viability dose-response assay. It is filed as toxicity, cell-based.

Several values for one entry are separate records, joined by “and”; a condition that tells them apart may be missing. Identical values can stand only once.

Take `CCc1ccc(-c2cc(C(F)(F)F)nc(N3CCC(N)CC3)n2)cc1`: the cytotoxicity at 70.5 h in data set [1] was 101%. In data set [2], the BOTTOM was 0.817 and 1.062; the HILLSLOPE is 8.779 and 6.129; the TOP was 102.2 and 102.5; the pXC50 is 5.566 and 5.542.
